From patent US10668040B2, “Treatment of urea cycle disorders in neonates and infants” (Horizon Therapeutics, LLC, priority 2017, dated 2020)

How the values were obtained:
Type in all cases: in vivo, human
[1] = Pharmacokinetics of HPN-100 and NaPBA, study HPN-100-005; conditions: HPN-100-005 (N = 11)
Excerpt: The pharmacokinetics of the short term studies can be summarized as follows. Mean exposure levels of HPN-100 metabolites PBA, PAA, and PAGN after doses of HPN-100 and NaPBA with meals (TID) in pediatric (29 days to 17 years of age) UCD patients in HPN-100-005 and HPN-100-012 studies are summarized below. The mean exposure to PBA, the parent metabolite, and mean exposure to PAGN, the terminal metabolite, show no systematic variation across age groups, while PAA exposure tended to decrease with increasing age, a finding consistent with those from population PK modeling which indicate that the rate of clearance/metabolism of PAA varies directly with body size. While systemic metabolite exposure, assessed as peak plasma concentration (Cmax) or AUC, is generally similar for HPN-100 and NaPBA, the minimum concentration (Cmin-ss) was higher—and/or percent-fluctuation less—for plasma PAGN, a finding consistent with slower gastrointestinal absorption of PBA when administered orally as HPN-100.

[2] = Example 3: plasma PBA, PAA, PAGN PK on first full day of RAVICTI dosing
Method: (§1) Pharmacokinetic (PK) Evaluable Population: all subjects from the safety population with individual concentration-time profiles that allow computation of meaningful PK parameter values. Measurements were taken at hour 0, between 4 and 6 hours, 8 hours, and between 12 and 24 hours after the first dose of the day on day 1 for stable subjects and on day 2 for subjects in HAC.
as §1, with “PK” for “Pharmacokinetic (PK)”

[3] = Example 3: urinary PAA concentrations (first full day and up to end of trial)
Method: Urinary PAA Concentrations on the First Full Day of RAVICTI Dosing
PK Evaluable Population: all subjects from the safety population with individual concentration-time profiles that allow computation of meaningful PK parameter values. Measurements were taken at hour 0, between 0.5 and 1.5 hours, between 1.5 and 2.5 hours, between 4 and 6 hours, between 7.5 and 8.5 hours, and between 12 and 24 hours after the first dose of the day on day 1 for stable subjects and on day 2 for subjects in HAC.
Urinary PAA Concentrations Up to End of Trial
PK Evaluable Population: all subjects from the safety population with individual concentration-time profiles that allow computation of meaningful PK parameter values. Measurements were taken at day 7, month 1, month 2, month 3, month 4, month 5, month 6, month 9, month 12, month 15, month 18, month 24, and at the end of the trial.

[4] = aged 0 to 2 months, 16 subjects
[5] = aged 2 months and up to 2 years, 10 subjects

## O=C(CCCc1ccccc1)OCC(COC(=O)CCCc1ccccc1)OC(=O)CCCc1ccccc1 [RAVICTI, benzenebutanoic acid, 1′,1″-(1,2,3-propanetriyl) ester]
[1]; mean (CV %)
  Plasma PAA % Fluctuation: 3483 (51.5) %
  Plasma PAA AUC0-24: 964 (63.6) μg · h/mL
  Plasma PAA CLss/F: 15082 (101.4) mL/min
  Plasma PAA Cmax-ss: 90.5 (69.1) μg/mL
  Plasma PAA Cmin-ss: 2.99 (122.1) μg/mL
  Plasma PAGN % Fluctuation: 1001 (84.5) %
  Plasma PAGN AUC0-24: 1378 (40.2) μg · h/mL
  Plasma PAGN CLss/F: 14237 (36.8) mL/min
  Plasma PAGN Cmax-ss: 105 (33.5) μg/mL
  Plasma PAGN Cmin-ss: 13.1 (64.9) μg/mL
  Plasma PBA % Fluctuation: 5690 (56.8) %
  Plasma PBA AUC0-24: 631 (44.9) μg · h/mL
  Plasma PBA CLss/F: 20545 (47.2) mL/min
  Plasma PBA Cmax-ss: 95.6 (42.0) μg/mL
  Plasma PBA Cmin-ss: 1.50 (99.8) μg/mL
  U-PAGN Ae: 12501037 (56.9) μg
  U-PAGN Ae0-12: 5611719 (74.7) μg
  U-PAGN Ae12-24: 6889318 (50.1) μg
  U-PAGN Fe0-12: 28.9 (42.1) %
  U-PAGN Fe12-24: 37.4 (32.3) %
  U-PAGN Fe % dose: 66.4 (23.9) %
[1]; median
  Plasma PAA Tmax-ss: 11.92 h
  Plasma PAGN Tmax-ss: 12.00 h
  Plasma PBA Tmax-ss: 12.00 h
[2]; aged 0 to 2 months, 7 subjects
  Plasma PBA mean Cmin: 4.8 (±4.2) μg/mL
[2]; aged 0 to 2 months, 10 subjects
  mean plasma PAA Cmin: 98.98 (±122.07) μg/mL
[2]; aged 0 to 2 months, 13 subjects
  mean plasma PAGN Cmin: 69.39 (±54.03) μg/mL
[2]; [4]
  Plasma PBA mean AUC[0-last]: 374.53 (±390.48) μg*hr/mL
  Plasma PBA mean Cmax: 46.2 (±49.8) μg/mL
  Plasma PBA mean Tmax: 9.39 (±7.41) hr
  mean plasma PAA AUC(0-last): 1321.18 (±1220.52) μg*hr/mL
  mean plasma PAA Cmax: 115.3 (±102.0) μg/mL
  mean plasma PAA Tmax: 9.85 (±9.26) hr
  mean plasma PAGN AUC(0-last): 1384.12 (±1141.03) μg*hr/mL
  mean plasma PAGN Cmax: 102.1 (±48.6) μg/mL
  mean plasma PAGN Tmax: 11.72 (±8.24) hr
[2]; [5]
  Plasma PBA mean AUC[0-last]: 280.936 (±293.553) μg*hr/mL
  Plasma PBA mean Cmax: 42.11 (±36.715) μg/mL
  Plasma PBA mean Cmin: 1.697 (±2.254) μg/mL
  Plasma PBA mean Tmax: 8.383 (±4.564) hr
  mean plasma PAA AUC(0-last): 246.126 (±238.547) μg*hr/mL
  mean plasma PAA Cmax: 36.52 (±31.784) μg/mL
  mean plasma PAA Cmin: 4.197 (±6.434) μg/mL
  mean plasma PAA Tmax: 7.422 (±7.351) hr
  mean plasma PAGN AUC(0-last): 583.835 (±285.241) μg*hr/mL
  mean plasma PAGN Cmax: 62.45 (±27.281) μg/mL
  mean plasma PAGN Cmin: 20.62 (±14.529) μg/mL
  mean plasma PAGN Tmax: 6.573 (±7.181) hr
[3]; Age 0 to <2 months, Day 7
  Urinary PAA concentration: 23.7 (±31.2); μg/mL
[3]; Age 0 to <2 months, End of trial
  Urinary PAA concentration: 11.6 (±9.0); μg/mL
[3]; Age 0 to <2 months, Month 1
  Urinary PAA concentration: 14.6 (±17.2); μg/mL
[3]; Age 0 to <2 months, Month 2
  Urinary PAA concentration: 12.3 (±13.3); μg/mL
[3]; Age 0 to <2 months, Month 3
  Urinary PAA concentration: 14.4 (±10.7); μg/mL
[3]; Age 0 to <2 months, Month 4
  Urinary PAA concentration: 6.4 (±7.1); μg/mL
[3]; Age 0 to <2 months, Month 5
  Urinary PAA concentration: 13.2 (±14.0); μg/mL
[3]; Age 0 to <2 months, Month 6
  Urinary PAA concentration: 5.5 (±00000); μg/mL
[3]; Age 0 to <2 months, Month 9
  Urinary PAA concentration: 11.8 (±8.5); μg/mL
[3]; Age 0 to <2 months, Month 12
  Urinary PAA concentration: 6.0 (±3.8); μg/mL
[3]; Age 0 to <2 months, Month 15
  Urinary PAA concentration: 4.9 (±0.3); μg/mL
[3]; Age 0 to <2 months, first full day, 0.5 to 1.5 hours
  Urinary PAA concentration: 46.2 (±58.6); μg/mL
[3]; Age 0 to <2 months, first full day, 1.5 to 2.5 hours
  Urinary PAA concentration: 62.5 (±42.8), μg/mL
[3]; Age 0 to <2 months, first full day, 4 to 6 hours
  Urinary PAA concentration: 34.6 (±56.2); μg/mL
[3]; Age 0 to <2 months, first full day, 7.5 to 8.5 hours
  Urinary PAA concentration: 22.8 (±25.3); μg/mL
[3]; Age 0 to <2 months, first full day, 12 to 24 hours
  Urinary PAA concentration: 35.2 (±51.0); μg/mL
[3]; Age 0 to <2 months, first full day, Hour 0
  Urinary PAA concentration: 11.1 (±10.4); μg/mL
[3]; Age 2 months to <2 years, Day 7
  Urinary PAA concentration: 5.82 (±2.21); μg/mL
[3]; Age 2 months to <2 years, End of trial
  Urinary PAA concentration: 7.0 (±5.16); μg/mL
[3]; Age 2 months to <2 years, Month 1
  Urinary PAA concentration: 4.44 (±4.61); μg/mL
[3]; Age 2 months to <2 years, Month 2
  Urinary PAA concentration: 3.69 (±1.82); μg/mL
[3]; Age 2 months to <2 years, Month 3
  Urinary PAA concentration: 4.65 (±0.49); μg/mL
[3]; Age 2 months to <2 years, Month 4
  Urinary PAA concentration: 7.14 (±00000); μg/mL
[3]; Age 2 months to <2 years, Month 5
  Urinary PAA concentration: 3.27 (±1.96); μg/mL
[3]; Age 2 months to <2 years, Month 6
  Urinary PAA concentration: 1.59 (±00000); μg/mL
[3]; Age 2 months to <2 years, Month 9
  Urinary PAA concentration: 4.10 (±1.65); μg/mL
[3]; Age 2 months to <2 years, Month 15
  Urinary PAA concentration: 2.04 (±00000); μg/mL
[3]; Age 2 months to <2 years, Month 18
  Urinary PAA concentration: 1.64 (±00000); μg/mL
[3]; Age 2 months to <2 years, first full day, 0.5 to 1.5 hours
  Urinary PAA concentration: 6.50 (±3.39); μg/mL
[3]; Age 2 months to <2 years, first full day, 1.5 to 2.5 hours
  Urinary PAA concentration: 7.29 (±4.10); μg/mL
[3]; Age 2 months to <2 years, first full day, 4 to 6 hours
  Urinary PAA concentration: 2.60 (±2.18); μg/mL
[3]; Age 2 months to <2 years, first full day, 7.5 to 8.5 hours
  Urinary PAA concentration: 4.48 (±4.38); μg/mL
[3]; Age 2 months to <2 years, first full day, 12 to 24 hours
  Urinary PAA concentration: 4.31 (±2.33); μg/mL
[3]; Age 2 months to <2 years, first full day, Hour 0
  Urinary PAA concentration: 18.78 (±27.33); μg/mL
